Earlier results, collected in article PMC2930141 (Biochimica et biophysica acta, 2010).

Assays:
[1] = aqueous
hCA I = conditions: bound to hCA I
[2] = target: human carbonic anhydrase I (hCA I) (Homo sapiens, UniProt P00915)
human carbonic anhydrase I (hCA I), sequence (P00915 whole entry): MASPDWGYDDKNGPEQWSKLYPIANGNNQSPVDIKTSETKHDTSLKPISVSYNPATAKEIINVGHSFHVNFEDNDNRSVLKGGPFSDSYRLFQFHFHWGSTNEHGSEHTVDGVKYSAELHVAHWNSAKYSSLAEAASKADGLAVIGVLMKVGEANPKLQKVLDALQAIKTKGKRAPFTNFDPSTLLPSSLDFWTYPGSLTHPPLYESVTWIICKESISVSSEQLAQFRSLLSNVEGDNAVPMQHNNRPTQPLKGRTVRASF

pKa of sulfonamide group [1]	pKa from pH dependent binding affinity (hCA I)	emission maximum of the enzyme-bound fluorophore [2] [nm]	pKa from pH dependent binding affinity (hCA II)	Compound
9.79				NS(=O)(=O)c1ccccc1 [benzenesulfonamide]
	6.3	458	6.4	CN(C)c1cccc2c(S(N)(=O)=O)cccc12 [dansylamide, 5-dimethylamino-1-naphthalene sulfonamide]
